This data set is described as follows: Pharmacokinetic assay in rats, plasma LIRA by UPLC-MS/MS. The class given is in vivo. The note with it: male Wistar rats, subcutaneous, single dose 200 µg/kg of LIRA, mean ± SD, n = 6. An excerpt:
Ultra-performance liquid chromatography (Acquity UPLC© Waters, Milford, MA, USA), coupled with a triple quadrupole mass spectrometer (XEVO-TQD, Waters®) equipped with a Z sprayTM electrospray ionisation source (Waters®, Milford, MA, USA), was employed to detect, and quantify LIRA levels in rat plasma after treatment. An ACQUITY UPLC BEH C18 reversed-phase chromatographic column (50 mm × 2.1 mm; 1.7 µm) was used, with a mobile phase composed of acetonitrile and ultrapure water, both acidified with 0.1% formic acid, eluted in gradient mode, with varying proportions (20/80, 45/55, 60/40, 80/20, 90/10, 80/20, 30/70, 20/80) at specific time intervals (0, 1.5, 2.0, 2.5, 3.0, 3.5, 4.5, 6.0 min), with a flow rate of 0.3 mL/min, injection volume of 2 µL, with a total analysis time of 7.5 min. The samples were maintained at a temperature of 10 °C in the sampler, while the column oven was maintained at 40 °C. Detection by mass spectrometry was carried out in positive electrospray ionisation (ESI+) mode, in multiple reaction monitoring (MRM) mode, with a source temperature of 150 °C, capillary voltage equal to 3.5 kV, desolvation temperature of 600 °C, desolvation flow of 1000 L/h and gas flow in the cone of 50 L/h. […] The transitions set at m/z 938.7 → 1064.1 for LIRA and m/z 1184.7 → 454.4 for insulin detemir. […]

Marks after values point to notes of the source that are not given here.

Take `CCCCCCCCCCCCCCCC(=O)N[C@@H](CCC(=O)NCCCC[C@H](NC(=O)[C@H](C)NC(=O)[C@H](C)NC(=O)[C@H](CCC(N)=O)NC(=O)CNC(=O)[C@H](CCC(=O)O)NC(=O)[C@H](CC(C)C)NC(=O)[C@H](Cc1ccc(O)cc1)NC(=O)[C@H](CO)NC(=O)[C@H](CO)NC(=O)[C@@H](NC(=O)[C@H](CC(=O)O)NC(=O)[C@H](CO)NC(=O)[C@@H](NC(=O)[C@H](Cc1ccccc1)NC(=O)[C@@H](NC(=O)CNC(=O)[C@H](CCC(=O)O)NC(=O)[C@H](C)NC(=O)[C@@H](N)Cc1cnc[nH]1)[C@@H](C)O)[C@@H](C)O)C(C)C)C(=O)N[C@@H](CCC(=O)O)C(=O)N[C@@H](Cc1ccccc1)C(=O)N[C@H](C(=O)N[C@@H](C)C(=O)N[C@@H](Cc1c[nH]c2ccccc12)C(=O)N[C@@H](CC(C)C)C(=O)N[C@H](C(=O)N[C@@H](CCCNC(=N)N)C(=O)NCC(=O)N[C@@H](CCCNC(=N)N)C(=O)NCC(=O)O)C(C)C)[C@@H](C)CC)C(=O)O` [Free LIRA, Liraglutide]: the Cl is 0.183 ± 0.015 ^b L/h.

Source of the values: PMC11125159 (Pharmaceutics, 2024).
